The results in this text go back to patent US20240336608A1, “IL4I1 INHIBITORS AND METHODS OF USE” (Merck Sharp & Dohme LLC, priority 2023, published 2024).

SMILES strings stand for the structures.

This assay has as its target T1, recombinant IL4I1 (Homo sapiens, UniProt Q96RQ9).
T1 construct: purchased R&D Systems 5684-AO-020
T1 sequence (Q96RQ9 22-567): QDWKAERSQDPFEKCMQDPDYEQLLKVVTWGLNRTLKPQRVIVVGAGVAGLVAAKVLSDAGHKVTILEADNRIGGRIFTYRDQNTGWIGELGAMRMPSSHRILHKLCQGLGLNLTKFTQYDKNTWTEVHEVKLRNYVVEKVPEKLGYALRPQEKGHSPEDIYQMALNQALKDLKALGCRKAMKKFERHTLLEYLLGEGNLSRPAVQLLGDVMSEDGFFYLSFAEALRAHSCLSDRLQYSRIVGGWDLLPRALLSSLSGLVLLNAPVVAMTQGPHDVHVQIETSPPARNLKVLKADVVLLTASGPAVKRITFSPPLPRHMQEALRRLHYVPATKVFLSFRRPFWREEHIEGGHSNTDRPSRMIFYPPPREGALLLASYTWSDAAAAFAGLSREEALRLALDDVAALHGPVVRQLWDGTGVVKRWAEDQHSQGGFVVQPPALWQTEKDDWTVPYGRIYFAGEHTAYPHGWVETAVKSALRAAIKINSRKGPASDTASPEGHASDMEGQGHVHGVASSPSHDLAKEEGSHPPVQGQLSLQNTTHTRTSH
Description: IL4I1 Enzymatic Assay (Amplex Red/HRP coupled detection of H2O2, fluorescence). In kind it is biochemical. The conditions noted are these: 1 nM recombinant IL4I1; four-hour pre-incubation with compound; 1 mM each Phe, Tyr, Trp; ten-point titration. A digest of the protocol: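 Recombinant IL4I1 (1 nM final) pre-incubated 4 h at ambient temperature with compound (0.5% DMSO) in 50 mM Hepes pH 7.0, 0.005% Tween20; reaction started with 1 mM each Phe/Tyr/Trp plus excess Amplex Red/HRP, run 120 min. H2O2 read as resorufin fluorescence; EC50 from 10-point four-parameter fit.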
As for `Cc1ccc(-n2cc(C(=O)NCc3ccc(-c4ccccc4Cl)nn3)nn2)c(C)n1` [Example 119, N-((6-(2-chlorophenyl)pyridazin-3-yl)methyl)-1-(2,6-dimethylpyridin-3-yl)-1H-1,2,3-triazole-4-carboxamide], the EC50 was 482 nM.

Regarding `Cc1ccc(-n2cc(C(=O)NCc3ccc(-c4cccc(F)c4)nn3)nn2)c(C)n1` [Example 120, 1-(2,6-dimethylpyridin-3-yl)-N-((6-(3-fluorophenyl)pyridazin-3-yl)methyl)-1H-1,2,3-triazole-4-carboxamide], the EC50 came out at 123 nM.

As for `Cc1ccc(-n2cc(C(=O)NCc3ccc(-c4cccs4)nn3)nn2)c(C)n1` [Example 121, 1-(2,6-dimethylpyridin-3-yl)-N-((6-(thiophen-2-yl)pyridazin-3-yl)methyl)-1H-1,2,3-triazole-4-carboxamide], the EC50 was determined as 24 nM.

Consider `Cc1ccc(-n2cc(C(=O)NCc3ccc(-c4sccc4C)nn3)nn2)c(C)n1` [Example 122, 1-(2,6-dimethylpyridin-3-yl)-N-((6-(3-methylthiophen-2-yl)pyridazin-3-yl)methyl)-1H-1,2,3-triazole-4-carboxamide], for which the EC50 worked out at 571 nM.

As for `Cc1ccc(-n2cc(C(=O)NCc3ccc(-c4cc(F)ccc4F)nn3)nn2)c(C)n1` [Example 123, N-((6-(2,5-difluorophenyl)pyridazin-3-yl)methyl)-1-(2,6-dimethylpyridin-3-yl)-1H-1,2,3-triazole-4-carboxamide], the EC50 was found to be 223 nM.

Regarding `CC1(n2cc(C(=O)NCc3nnc(-c4ccccc4)s3)nn2)CCC1` [Example 124, 1-(1-methylcyclobutyl)-N-((5-phenyl-1,3,4-thiadiazol-2-yl)methyl)-1H-1,2,3-triazole-4-carboxamide], the EC50 was 23 nM.

Regarding `O=C(NCc1nnc(-c2ccccc2)s1)c1cn(CCN2CCNC2=O)nn1` [Example 125, 1-(2-(2-oxoimidazolidin-1-yl)ethyl)-N-((5-phenyl-1,3,4-thiadiazol-2-yl)methyl)-1H-1,2,3-triazole-4-carboxamide], the EC50 was determined as 453 nM.

Consider `CC(C)(Cn1cc(C(=O)NCc2nnc(-c3ccccc3)s2)nn1)C(N)=O` [Example 126, 1-(3-amino-2,2-dimethyl-3-oxo-propyl)-N-[(5-phenyl-1,3,4-thiadiazol-2-yl)methyl]triazole-4-carboxamide], for which the EC50 stood at 843 nM.

`O=C(NCc1nnc(-c2ccccc2)s1)c1cn(CC(O)C(F)(F)F)nn1` (stereo not shown) [Example 127, N-((5-phenyl-1,3,4-thiadiazol-2-yl)methyl)-1-(3,3,3-trifluoro-2-hydroxypropyl)-1H-1,2,3-triazole-4-carboxamide]: the EC50 is 73 nM.

Consider `C[C@H](O)Cn1cc(C(=O)NCc2nnc(-c3ccccc3)s2)nn1` [Example 128, (S)-1-(2-hydroxypropyl)-N-((5-phenyl-1,3,4-thiadiazol-2-yl)methyl)-1H-1,2,3-triazole-4-carboxamide], for which the EC50 worked out at 27 nM.

For `O=C(NCc1nnc(-c2ccccc2)s1)c1cn(CC2CCOC2)nn1` (stereo not shown) [Example 129, N-((5-phenyl-1,3,4-thiadiazol-2-yl)methyl)-1-((tetrahydrofuran-3-yl)methyl)-1H-1,2,3-triazole-4-carboxamide], the EC50 came to 124 nM.

In the case of `C[C@@H]1C[C@H]1n1cc(C(=O)NCc2nnc(-c3ccccc3)s2)nn1` [Example 134, 1-((1R,2R)-2-methylcyclopropyl)-N-((5-phenyl-1,3,4-thiadiazol-2-yl)methyl)-1H-1,2,3-triazole-4-carboxamide], the EC50 came to 166 nM.

As to `O=C(NCc1nnc(-c2ccccc2)s1)c1cn(CC2(F)CCC2)nn1` [Example 135, 1-((1-fluorocyclobutyl)methyl)-N-((5-phenyl-1,3,4-thiadiazol-2-yl)methyl)-1H-1,2,3-triazole-4-carboxamide], the EC50 is 100 nM.

For the compound `O=C(NCc1nnc(-c2ccccc2)s1)c1cn(CC2(O)CC2)nn1` [Example 136, 1-((1-hydroxycyclopropyl)methyl)-N-((5-phenyl-1,3,4-thiadiazol-2-yl)methyl)-1H-1,2,3-triazole-4-carboxamide], the EC50 was determined as 29 nM.

Turning to `O=C(NCc1nnc(-c2ccccc2)s1)c1cn(CC2(O)CCC2)nn1` [Example 137, 1-((1-hydroxycyclobutyl)methyl)-N-((5-phenyl-1,3,4-thiadiazol-2-yl)methyl)-1H-1,2,3-triazole-4-carboxamide], the EC50 was 574 nM.

As to `O=C(NCc1nnc(-c2ccccc2)s1)c1cn(CC2(O)COC2)nn1` [Example 140, 1-((3-hydroxyoxetan-3-yl)methyl)-N-((5-phenyl-1,3,4-thiadiazol-2-yl)methyl)-1H-1,2,3-triazole-4-carboxamide], the EC50 was found to be 10 nM.

Turning to `C[C@@H](C1COC1)n1cc(C(=O)NCc2nnc(-c3ccccc3)s2)nn1` [Example 148, (S)-1-(1-(oxetan-3-yl)ethyl)-N-((5-phenyl-1,3,4-thiadiazol-2-yl)methyl)-1H-1,2,3-triazole-4-carboxamide], the EC50 was 164 nM.

Turning to `C[C@H](C1COC1)n1cc(C(=O)NCc2nnc(-c3ccccc3)s2)nn1` [Example 149, (R)-1-(1-(oxetan-3-yl)ethyl)-N-((5-phenyl-1,3,4-thiadiazol-2-yl)methyl)-1H-1,2,3-triazole-4-carboxamide], the EC50 stood at 132 nM.

Regarding `O=C(NCc1nnc(-c2ccccc2)s1)c1cn(CC2(F)CC2)nn1` [Example 150, 1-((1-fluorocyclopropyl)methyl)-N-((5-phenyl-1,3,4-thiadiazol-2-yl)methyl)-1H-1,2,3-triazole-4-carboxamide], the EC50 came to 4 nM.

Turning to `O=C(NCc1nnc(-c2ccccc2)s1)c1cn(C2(CF)CC2)nn1` [Example 151, 1-(1-(fluoromethyl)cyclopropyl)-N-((5-phenyl-1,3,4-thiadiazol-2-yl)methyl)-1H-1,2,3-triazole-4-carboxamide], the EC50 is 25 nM.

Regarding `O=C(NCc1nnc(-c2ccccc2)s1)c1cn(C2(C(F)F)CC2)nn1` [Example 152, 1-(1-(difluoromethyl)cyclopropyl)-N-((5-phenyl-1,3,4-thiadiazol-2-yl)methyl)-1H-1,2,3-triazole-4-carboxamide], the EC50 amounted to 167 nM.

`O=C(NCc1nnc(-c2ccccc2)s1)c1cn(C2(C(F)(F)F)CC2)nn1` [Example 153, N-((5-phenyl-1,3,4-thiadiazol-2-yl)methyl)-1-(1-(trifluoromethyl)cyclopropyl)-1H-1,2,3-triazole-4-carboxamide]: the EC50 amounted to 593 nM.

In the case of `O=C(NCc1nnc(-c2ccccc2)s1)c1cn(Cc2ccno2)nn1` [Example 154, 1-(isoxazol-5-ylmethyl)-N-((5-phenyl-1,3,4-thiadiazol-2-yl)methyl)-1H-1,2,3-triazole-4-carboxamide], the EC50 was determined as 49 nM.

Turning to `CC(c1ccno1)n1cc(C(=O)NCc2nnc(-c3ccccc3)s2)nn1` (stereo not shown) [Example 155, 1-(1-(isoxazol-5-yl)ethyl)-N-((5-phenyl-1,3,4-thiadiazol-2-yl)methyl)-1H-1,2,3-triazole-4-carboxamide], the EC50 is 13 nM.

Regarding `O=C(NCc1nnc(-c2ccccc2)s1)c1cn(Cc2cc[nH]n2)nn1` [Example 156, 1-((1H-pyrazol-3-yl)methyl)-N-((5-phenyl-1,3,4-thiadiazol-2-yl)methyl)-1H-1,2,3-triazole-4-carboxamide], the EC50 was found to be 8 nM.

Regarding `O=C(NCc1nnc(-c2ccccc2)s1)c1cn(CC2COC2)nn1` [Example 157, 1-(oxetan-3-ylmethyl)-N-((5-phenyl-1,3,4-thiadiazol-2-yl)methyl)-1H-1,2,3-triazole-4-carboxamide], the EC50 was 11 nM.

On to `O=C(NCc1nnc(-c2ccccc2)s1)c1cn(C2(CO)COC2)nn1` [Example 158, 1-(3-(hydroxymethyl)oxetan-3-yl)-N-((5-phenyl-1,3,4-thiadiazol-2-yl)methyl)-1H-1,2,3-triazole-4-carboxamide], for which the EC50 turned out to be 335 nM.

Consider `O=C(NCc1nnc(-c2ccccc2)s1)c1cn(C2(CO)CC2)nn1` [Example 159, 1-(1-(hydroxymethyl)cyclopropyl)-N-((5-phenyl-1,3,4-thiadiazol-2-yl)methyl)-1H-1,2,3-triazole-4-carboxamide], for which the EC50 amounted to 170 nM.

`N#CC1(n2cc(C(=O)NCc3nnc(-c4ccccc4)s3)nn2)CC1` [Example 160, 1-(1-cyanocyclopropyl)-N-((5-phenyl-1,3,4-thiadiazol-2-yl)methyl)-1H-1,2,3-triazole-4-carboxamide]: the EC50 amounted to 36 nM.

As for `CC1(Cn2cc(C(=O)NCc3nnc(-c4ccccc4)s3)nn2)COC1` [Example 161, 1-((3-methyloxetan-3-yl)methyl)-N-((5-phenyl-1,3,4-thiadiazol-2-yl)methyl)-1H-1,2,3-triazole-4-carboxamide], the EC50 stood at 22 nM.

With `CNC(=O)C1(n2cc(C(=O)NCc3nnc(-c4ccccc4)s3)nn2)CC1` [Example 162, 1-(1-(methylcarbamoyl)cyclopropyl)-N-((5-phenyl-1,3,4-thiadiazol-2-yl)methyl)-1H-1,2,3-triazole-4-carboxamide], the EC50 stood at 120 nM.
